Reference: BindingDB's records for doi:10.1021/acs.jmedchem.0c00656 (2020)

Molecular target: T1, Vitamin D3 receptor A (Danio rerio, UniProt Q9PTN2)
T1 sequence (Q9PTN2 whole entry): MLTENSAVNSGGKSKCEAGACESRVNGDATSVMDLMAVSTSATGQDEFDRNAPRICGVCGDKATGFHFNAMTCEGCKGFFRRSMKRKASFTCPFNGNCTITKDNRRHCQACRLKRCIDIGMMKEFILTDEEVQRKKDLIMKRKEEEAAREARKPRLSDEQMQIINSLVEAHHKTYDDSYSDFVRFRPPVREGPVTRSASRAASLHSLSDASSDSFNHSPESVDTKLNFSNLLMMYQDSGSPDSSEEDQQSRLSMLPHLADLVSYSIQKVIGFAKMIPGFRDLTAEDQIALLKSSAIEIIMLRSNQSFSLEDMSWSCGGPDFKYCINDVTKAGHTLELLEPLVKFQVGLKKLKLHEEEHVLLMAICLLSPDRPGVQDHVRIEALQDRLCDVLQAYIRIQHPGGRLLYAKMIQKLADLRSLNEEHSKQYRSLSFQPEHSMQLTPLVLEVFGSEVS
Experiment: Binding affinity to zebrafish VDR LBD assessed as Kd for fluorescein-labeled SRC1 NR2 peptide binding by micro-scale thermophoresis method

Kd: > 30 µM
Structure (SMILES): C=C1/C(=C\C=C2/CCC[C@]3(C)[C@@H]([C@H](C)/C=C/[C@@H](O)C4(/C=C/C(=O)OCC)CC4)CC[C@@H]23)C[C@@H](O)C[C@@H]1O
